Assay [1] has as its system Rat model loaded with high cholesterol diet. The assay can be described thus: Blood cholesterol lowering effect in rats fed on a high cholesterol diet (Test Example 1). The assay is classed as in vivo. The settings on record: treatment model; 0.3 mg/kg at a time, oral twice a day; control group = 100%. The protocol:
Blood Cholesterol Lowering Effect in Rats Fed on a High Cholesterol Diet
In this test example, blood cholesterol level lowering effect in rats fed on a high cholesterol diet was tested according to the method described in J. Lipid, Res., 1995, 36, 1098-1105.
That is, a diet containing 0.4% cholesterol and 0.5% of bile acid was given to 7 to 9 weeks old SD (IGS) male rats for 5 days before the test to increase the blood cholesterol level. […] Cholestimide (trade name: CHOLEBINE GRANULE 70% manufactured by MITSUBISHI TOKYO PHARMACEUTICALS, INC.), which is an anion exchange resin, was suspended in distilled water while the test compound was either dissolved or suspended in distilled water. These were forcibly orally administered twice a day every day from the day of beginning of the test (each n=8). After 3 hours from the administration of the drug on the last day of the test, a blood sample was taken from a jugular vein pool and serum cholesterol level was measured to study the effect of the test compound. Further, as a control group, a group (n=8) fed on only high cholesterol diet and given distilled water (1 ml/kg) was prepared and the same test procedure was followed. A commercially available kit was used for the measurement of total cholesterol and HDL cholesterol. The value obtained by subtracting an HDL cholesterol value from the total cholesterol value was taken as an LDL+VLDL cholesterol value. Assuming the LDL+VLDL cholesterol value of the control group, for which the test compound was not used, as 100%, the rate of decrease (percentage of decrease) of LDL +VLDL cholesterol value when a fixed amount of the test compound was used, was determined.

The subject of assay [2] is Cholic acid-loaded rat model. Kind of assay: Bile acid-decreasing effect in portal vein of rats loaded with cholic acid (Test Example 2). The settings on record: 0.1 mg/kg oral with cholic acid 200 mg/kg; portal vein blood after 2 hours; HCO-60 0.1%. The class given is in vivo. A digest of the protocol: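 SD (IGS) rats aged 7 to 9 weeks were fasted from the day before testing, then given cholic acid (200 mg/kg) together with the test compound by forced oral dosing. Portal vein blood was drawn 2 hours later, and total serum bile acid was measured with a commercial kit (n=6). The percent decrease was calculated relative to a cholic acid-only control group set at 100%.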

The test system of another assay is KKAy/Ta Jcl obese mice. The assay can be described thus: Obesity and fatty liver model (Test Example 6). The settings on record: average ± standard error; for Body Weight (g) 2 weeks later / Liver triglyceride / Body Weight (g) Variation amount: 1 mg/kg once a day for 2 weeks; for Liver triglyceride: controls 94 ± 18 / 103 ± 19; for Body Weight (g) Variation amount: controls −0.8 ± 0.5 / 0.7 ± 0.4; for Body Weight (g) Before administration: baseline of the 1 mg/kg group. The class given is in vivo, mouse. The protocol: Obesity and Fatty Liver Model
The obesity and fatty liver model in this test example was handled by referring to the method described in WO02/09757.
That is, 10 weeks old KKA^y/Ta Jcl male mice were used as obese mice (N=from 4 to 7). The test compounds dissolved or suspended in an aqueous solution of 1% HCO60 (manufactured by NIPPON CHEMICALS COMPANY, LTD.) and an aqueous solution of 1% HCO60 (manufactured by NIPPON CHEMICALS COMPANY, LTD.) as a control group were administered once a day for 2 weeks continuously. The weights of the mice were measured every day and compared with the weights measured on the day before the administration. On the day next to the final day of administration of the drug, the livers were extracted and concentrations of triglycerides in the liver tissues were measured by using a measurement kit (TRIGLYCERIDE TEST WAKO, manufactured by WAKO PURE CHEMICAL […], LTD.).

Assay [3] deals with steatohepatitis model rats. The assay can be described thus: Steatohepatitis model, choline-deficient diet (Test Example 15). The class given is in vivo, rat. The settings on record: 3 mg/kg oral once a day for 2 weeks; n = 4; average ± standard error. The source says:
In this test example, the steatohepatitis model was examined referring to the method of Okan A., et al. (Dig Dis Sci 47:2389-2397, 2002).
That is, 7 weeks old Wistar rats were fed with a choline-deficient diet (manufactured by Oriental Yeast Co., Ltd.) for 2 weeks to prepare a steatohepatitis model. A suspension of a test compound in an aqueous solution of 0.5% methyl cellulose (manufactured by WAKO PURE CHEMICAL […], LTD.) and an aqueous solution of 0.5% methyl cellulose (manufactured by WAKO PURE CHEMICAL […], LTD.) as a control were orally administered once a day for consecutive 2 weeks. On the day next to the last day of administration, a blood sample was taken from the abdominal aorta and AST (GOT) and ALT (GPT) in the blood were measured by using measuring kits (GOTII-HA TEST WAKO and GPTII-HA TEST WAKO, respectively, the both were manufactured by WAKO PURE CHEMICAL […], LTD.) on an auto analyzer (NITTECH ANALYZER SUPER Z818).

Each structure is given as a SMILES string.

Regarding `CCCCC1(CCCC)CS(=O)(=O)c2ccc(N(C)C)cc2C(c2cccc(NC(=S)CCCCC[N+]34CCC(CC3)CC4)c2)N1.[Br-]` (centres unmarked) [Example 1, 1-{5-[3-(3,3-Dibutyl-7-dimethylamino-1,1-dioxo-2,3,4,5-tetrahydro-1,4-benzothiazepin-5-yl)phenylthiocarbamoyl]pentyl}-1-azoniabicyclo[2.2.2]octane bromide], the “Rate of decrease (%) of LDL + VLDL” value in assay [1] came to 49%.
Take `CCCCC1(CCCC)CS(=O)(=O)c2ccc(N(C)C)cc2C(c2cccc(NC(=S)Nc3ccc(C[N+](C)(C)Cc4ccccc4)cc3)c2)N1.[Br-]` (centres unmarked) [Example 3440]: the “Rate of decrease (%) of LDL + VLDL” value in assay [1] is 36%. The “Rate of decrease (%) of bile acid” value in assay [2] was 26%. Further, in the assay on KKAy/Ta Jcl obese mice, the “Body Weight (g) 2 weeks later” value is reported as 43.9 ± 1.8 g, the “Liver triglyceride” value is on record as 88 ± 6 mg/g, the “Body Weight (g) Variation amount” value is -0.7 ± 1.0 g and the “Body Weight (g) Before administration” value came to 44.6 ± 0.8 g. For the same compound, in assay [3], the ALT is 167 ± 93 IU/L and the AST came to 125 ± 34 IU/L.
On to `C#CC[N+](C)(Cc1ccccc1)Cc1ccc(NC(=S)Nc2cccc(C3NC(CCCC)(CCCC)CS(=O)(=O)c4ccc(N(C)C)cc43)c2)cc1` (centres unmarked) [Example 3448], for which, in assay [1], the “Rate of decrease (%) of LDL + VLDL” value was determined as 20%. The “Rate of decrease (%) of bile acid” value in assay [2] is reported as 25%. For the same compound, in the assay on KKAy/Ta Jcl obese mice, the “Body Weight (g) 2 weeks later” value is 42.1 ± 3.2 g, the “Liver triglyceride” value came out at 74 ± 8 mg/g, the “Body Weight (g) Variation amount” value was -2.0 ± 0.7 g and the “Body Weight (g) Before administration” value is listed as 44.1 ± 0.7 g. In addition, in assay [3], the ALT is 143 ± 79 IU/L and the AST was determined as 134 ± 23 IU/L.
With `CCCCC1(CCCC)CS(=O)(=O)c2ccc(N(C)C)cc2C(c2cccc(NC(=S)Nc3ccc(C[N+]4(Cc5ccccc5)CCC(O)CC4)cc3)c2)N1.[Br-]` (centres unmarked) [Example 3605], the “Rate of decrease (%) of LDL + VLDL” value in assay [1] is given as 28%. In addition, in assay [2], the “Rate of decrease (%) of bile acid” value came to 24%. Also, in the assay on KKAy/Ta Jcl obese mice, the “Body Weight (g) 2 weeks later” value stood at 41.4 ± 1.0 g, the “Liver triglyceride” value is 65 ± 7 mg/g, the “Body Weight (g) Variation amount” value is -1.5 ± 0.4 g and the “Body Weight (g) Before administration” value worked out at 42.9 ± 1.1 g. In assay [3], this compound yielded an ALT of 121 ± 36 IU/L and an AST of 80 ± 34 IU/L.
Consider `CCCCC1(CCCC)CS(=O)(=O)c2ccc(N(C)C)cc2C(c2cccc(NC(=S)Nc3ccc(C[N+]45CCC(c6ccccc6)(CC4)CC5)cc3)c2)N1.[Br-]` (centres unmarked) [Example 3696], for which the “Rate of decrease (%) of LDL + VLDL” value in assay [1] came to 25%. Besides, in assay [2], the “Rate of decrease (%) of bile acid” value is 13%. In addition, in the assay on KKAy/Ta Jcl obese mice, the “Body Weight (g) 2 weeks later” value came to 42.2 ± 2.2 g, the “Liver triglyceride” value is listed as 76 ± 12 mg/g, the “Body Weight (g) Variation amount” value was -1.3 ± 0.3 g and the “Body Weight (g) Before administration” value amounted to 43.5 ± 1.3 g. In assay [3], this compound showed an ALT of 145 ± 34 IU/L and an AST of 98 ± 23 IU/L.
Turning to `CCCCC1(CCCC)CS(=O)(=O)c2ccc(N(C)C)cc2C(c2cccc(NC(=S)Nc3ccc(C[n+]4ccc(C(C)(C)C)cc4)cc3)c2)N1.[Br-]` (centres unmarked) [Example 3713], the “Rate of decrease (%) of LDL + VLDL” value in assay [1] came to 41%. Further, the “Rate of decrease (%) of bile acid” value in assay [2] is 32%. Further, in the assay on KKAy/Ta Jcl obese mice, the “Body Weight (g) 2 weeks later” value is reported as 41.5 ± 2.4 g, the “Liver triglyceride” value is recorded as 59 ± 33 mg/g, the “Body Weight (g) Variation amount” value was -2.5 ± 0.6 g and the “Body Weight (g) Before administration” value was determined as 44.0 ± 1.1 g. In assay [3], the ALT was found to be 118 ± 36 IU/L and the AST was found to be 77 ± 37 IU/L.
Regarding `CCCCC1(CCCC)CS(=O)(=O)c2ccc(N(C)C)cc2C(c2cccc(NC(=S)Nc3ccc(C[n+]4cccc(CCCO)c4)cc3)c2)N1.[Br-]` (centres unmarked) [Example 3747], in assay [1], the “Rate of decrease (%) of LDL + VLDL” value was determined as 48%. Further, the “Rate of decrease (%) of bile acid” value in assay [2] is 40%. In addition, in the assay with KKAy/Ta Jcl obese mice, the “Body Weight (g) 2 weeks later” value was found to be 42.2 ± 1.8 g, the “Liver triglyceride” value turned out to be 47 ± 23 mg/g, the “Body Weight (g) Variation amount” value is -2.1 ± 1.0 g and the “Body Weight (g) Before administration” value came out at 44.3 ± 0.8 g. In assay [3], this compound registered an ALT of 102 ± 50 IU/L and an AST of 63 ± 86 IU/L.
Take `CCCCC1(CCCC)CS(=O)(=O)c2ccc(N(C)C)cc2C(c2cccc(NC(=S)Nc3ccc(C[n+]4cccc(CCC(=O)OC)c4)cc3)c2)N1.[Br-]` (centres unmarked) [Example 3752]: the “Rate of decrease (%) of LDL + VLDL” value in assay [1] was found to be 50%. Further, the “Rate of decrease (%) of bile acid” value in assay [2] is 42%. Besides, in the assay with KKAy/Ta Jcl obese mice, the “Body Weight (g) 2 weeks later” value amounted to 41.5 ± 1.0 g, the “Liver triglyceride” value was determined as 56 ± 23 mg/g, the “Body Weight (g) Variation amount” value is -2.3 ± 0.9 g and the “Body Weight (g) Before administration” value was found to be 43.8 ± 1.2 g. In assay [3], this compound displayed an ALT of 88 ± 45 IU/L and an AST of 69 ± 98 IU/L.
With `CCCCC1(CCCC)CS(=O)(=O)c2ccc(N(C)C)cc2C(c2cccc(NC(=S)Nc3ccc(C[n+]4ccccc4CCC)cc3)c2)N1.[Br-]` (centres unmarked) [Example 5408], the “Rate of decrease (%) of LDL + VLDL” value in assay [1] was found to be 43%. For the same compound, the “Rate of decrease (%) of bile acid” value in assay [2] is given as 35%. In the assay with KKAy/Ta Jcl obese mice, the “Body Weight (g) 2 weeks later” value came to 42.2 ± 1.6 g, the “Liver triglyceride” value was found to be 70 ± 11 mg/g, the “Body Weight (g) Variation amount” value is -1.8 ± 0.5 g and the “Body Weight (g) Before administration” value is reported as 44.0 ± 0.9 g. Besides, in assay [3], the ALT worked out at 149 ± 38 IU/L and the AST is given as 103 ± 45 IU/L.
